# Literature values as cited in patent US20190151246A1, “DELAYED-RELEASE TABLETS OF METHYLPHENIDATE” (PRODUCTS & TECHNOLOGY, S.L., priority 2016, published 2019).
structure (smiles),measurement,setting,value
"COC(=O)C(c1ccccc1)C1CCCCN1 (centres unmarked) [methylphenidate, methyl 2-phenyl-2-(2-piperidyl)acetate]",half-life in children,"children, estimated",approximately 2.5 hours
same,half-life,in vivo,2 to 4 h
